Results reported in ChEMBL document CHEMBL3351290, “Structural studies provide clues for analog design of specific inhibitors of Cryptosporidium hominis thymidylate synthase-dihydrofolate reductase” (Bioorg Med Chem Lett, 2014).

Columns and labels:
Thymidylate synthase = Thymidylate synthase (Homo sapiens, UniProt P04818); experiment: Inhibition of human thymidylate synthase
Dihydrofolate reductase = target: T1, Dihydrofolate reductase (Homo sapiens, UniProt P00374); experiment: Inhibition of human DHFR
T1 sequence (P00374 whole entry): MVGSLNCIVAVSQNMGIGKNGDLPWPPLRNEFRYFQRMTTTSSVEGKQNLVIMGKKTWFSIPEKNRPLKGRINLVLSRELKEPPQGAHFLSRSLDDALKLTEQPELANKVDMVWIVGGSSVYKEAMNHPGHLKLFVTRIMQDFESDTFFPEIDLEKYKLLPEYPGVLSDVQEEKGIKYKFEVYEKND

Cryptosporidium hominis [1] = experiment: Antiparasitic activity against compound pre-treated Cryptosporidium hominis Iowa sporozoites infected in human HCT8 cells assessed as reduction in parasite infection; format: functional, organism-based; conditions: HCT-8
[2] = Toxicity in Cryptosporidium hominis Iowa sporozoites infected human HCT8 cells assessed as effect on cell viability by microscopy; format: cell-based; conditions: hct-8
[3] = Toxicity in Cryptosporidium hominis Iowa sporozoites infected human HCT8 cells assessed as effect on RNA levels; format: cell-based; conditions: hct-8
[4] = Toxicity in Cryptosporidium hominis Iowa sporozoites infected human HCT8 cells assessed as effect on cell morphology by microscopy; format: cell-based; conditions: hct-8
Cryptosporidium hominis [5] = experiment: Antiparasitic activity against Cryptosporidium hominis Iowa intracellular forms infected in human HCT8 cells assessed as reduction in parasite infection dosed 2 hrs after parasite infection; format: functional, organism-based; conditions: HCT-8, 2 h

Thymidylate synthase, sequence (P04818 whole entry): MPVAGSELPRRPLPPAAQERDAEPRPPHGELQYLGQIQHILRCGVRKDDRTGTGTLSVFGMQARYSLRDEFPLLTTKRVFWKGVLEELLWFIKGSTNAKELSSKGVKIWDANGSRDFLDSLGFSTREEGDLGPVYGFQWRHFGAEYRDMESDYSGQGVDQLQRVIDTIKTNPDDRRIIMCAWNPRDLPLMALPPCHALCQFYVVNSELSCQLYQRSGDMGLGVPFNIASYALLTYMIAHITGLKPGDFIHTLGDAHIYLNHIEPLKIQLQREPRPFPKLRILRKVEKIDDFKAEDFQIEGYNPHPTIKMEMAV

Q: What does the source list for Nc1nc2[nH]cc(Cc3ccc(C(=O)N[C@@H](CCC(=O)O)C(=O)O)cc3)c2c(=O)[nH]1?
A: IC50 (Thymidylate synthase): 1800 nM; IC50 (Dihydrofolate reductase): 640 nM; EC50 (Cryptosporidium hominis [1]): 1000 nM; Activity [2]: Non-toxic; Activity [3]: Non-toxic; Activity [4]: Non-toxic; EC50 (Cryptosporidium hominis [5]): 1000 nM
